# Measurements published in patent EP2902035B1, “Cell-permeable peptide inhibitors of the JNK signal transduction pathway for use in the treatment of inflammatory eye diseases” (Xigen Inflammation Ltd., priority 2010, dated 2012).
# Experiments:
# [1] = tested on: Endotoxin-Induced Uveitis (EIU); assay: Scoring of Endotoxin-Induced Uveitis (EIU) by slit lamp; assay type: in vivo, Lewis rats; details: scored at 24 hours on a scale from 0 to 5, mean ± SEM
# Protocol: For intravenous (IV) injection, 100 µL of saline (NaCl 0.9%) or the JNK-inhibitor (poly-)peptide of SEQ ID NO: 11 (20 µg/kg in saline) were injected in a tail vein using a 25G-needle connected on a 1 mL syringe (Becton Dickinson, France). For intravitreous (IVT) injection, 5 µL of saline or the JNK-inhibitor (poly-)peptide of SEQ ID NO: 11 (0.2 µg/injection in saline) were injected in both eyes using a 30G disposable needle (BD-microfine syringe, nm Médical, Asnière, France). The IV dose of 20 µg/kg (i.e. 3.5 µg/rat in rats weighing 175g) was chosen according to studies showing that the JNK-inhibitor (poly-)peptide of SEQ ID NO: 11 is active at very low doses in other models. For intravitreous injections, the inventors used the minimal dose used in direct ear application after acute noise trauma in patients. This corresponds to 5% of the dose injected intravenously. […]
# In a first set of experiment, 70 rats were randomized into 14 experimental groups with 5 rats per group. […] Clinical ocular inflammation was recorded only at 24 hours (see Scoring of Endotoxin-Induced Uveitis (EIU) section). […]
# Animals were examined by slit lamp at 24 hours, the clinical peak of the disease in our experiments. The intensity of clinical ocular inflammation was scored on a scale from 0 to 5 for each eye as described previously 10: grade (0) indicates no inflammation; grade (1) indicates the presence of a minimal iris and conjunctival vasodilation but without the observation of flare or cells in the anterior chamber (AC); grade (2) indicates the presence of moderate iris and conjunctival vessel dilation but without evident flare or cells in the AC; grade (3) indicates the presence of intense iris vessels dilation, flare and less than 10 cells per slit lamp field in the AC; grade (4) indicates the presence of more severe clinical signs than grade 3, with more than 10 cells in the AC with or without the formation of a hypopion; grade (5) indicates the presence of intense inflammatory reaction, fibrin formation in the AC and total seclusion of the pupil. […]
# [2] = tested on: c-Jun phosphorylation (JNK pathway); assay: Western-Blot analysis of c-Jun phosphorylation in RPE/choroid in EIU; assay type: in vivo, Lewis rats; details: for relative band intensity for phospho c-Jun in comparison to tubulin (densitometry): EIU
# Protocol: Retinas and RPE/choroid/sclera complexes were carefully dissected out on enucleated eyes, snap frozen and stored at -80°C until being used for RT-PCR and Western-Blot analyses.
# Retinas and RPE/choroid/sclera complexes were also collected at 24 hours to analyze iNOS mRNA levels by RT-PCR and c-Jun phosphorylation state by Western-Blot. Tissues were collected only from eyes treated by IV (intravenous) injection of vehicle, IV injection of the JNK-inhibitor (poly-)peptide of SEQ ID NO: 11, IVT (intravitreal) injection of vehicle and IVT injection of the JNK-inhibitor (poly-)peptide of SEQ ID NO: 11 (n=2 eyes per condition collected from separate rats). Eyes were selected so that their EIU clinical score was representative of the mean of the experimental group they belong to, i.e 3 for eyes treated by IV and IVT injection of vehicle and 2 for eyes treated by IV or IVT injection of the JNK-inhibitor (poly-)peptide of SEQ ID NO: 11.
# RPE/choroid/sclera complexes and neuroretinas (2 per experimental group) were snap frozen immediately after dissection and stored at -80°C until use. Tissues were homogenized in 500 µL of lysis buffer (MOPS SDS Running Buffer, Invitrogen, Cergy-Pontoise, France) supplemented with protease inhibitor cocktail (Roche Diagnostics, Meylan, France) (one tablet for 50 mL). After addition of LDS Sample Buffer (Invitrogen) and heating for 5 min at 100°C, equal amounts of proteins were subjected to electrophoresis in a NuPAGE 4-12% Bis-Tris gel (Invitrogen) using MOPS SDS Running Buffer. The bands obtained were then electrotransferred onto nitrocellulose membranes (Schleicher & Schuell BioScience, Dassel, Germany).
# Western-blot analyses were carried out to analyze the effect of the JNK-inhibitor (poly-)peptide of SEQ ID NO: 11 on the three mitogen-activated protein kinase (MAPK) pathways. To analyze the JNK pathway, blots were sequentially incubated with a rabbit Phospho-c-Jun (Ser63) primary antibody (or Phospho-c-Jun (Ser73) antibody) and an anti-rabbit IgG HRP-linked secondary antibody according to the manufacturer's instruction (PhosphoPlus c-Jun (Ser63) II and c-Jun (Ser73) antibody kit (9260) purchased from Cell Signaling Technology (Ozyme, St Quentin Yvelines, France)). Bands were visualized using the ECL Western Blotting Detection Reagents Kit (Amersham Biosciences, Orsay, France). […] The relative band intensity for phospho c-Jun (Ser 63 or Ser73) was calculated in comparison to that for -tubulin after densitometry analysis (ImageJ software).
smiles,measurement,setting,value
CC(C)C[C@@H](NC(=O)[C@@H](Cc1ccccc1)NC(=O)[C@H]1CCCN1C(=O)[C@@H](CCC(N)=O)NC(=O)[C@H](NC(=O)[C@H]1CCCN1C(=O)[C@@H](CCCNC(=N)N)NC(=O)[C@@H](CO)NC(=O)[C@@H](CCC(N)=O)NC(=O)[C@H](N)CC(=O)O)C(C)C)C(=O)N[C@H](CC(N)=O)C(=O)N[C@H](CC(C)C)C(=O)N[C@@H](C(=O)N[C@@H](C(=O)N1CCC[C@@H]1C(=O)N[C@H](CCCNC(=N)N)C(=O)N[C@H](CCCCN)C(=O)N1CCC[C@@H]1C(=O)N[C@H](CCCNC(=N)N)C(=O)N1CCC[C@@H]1C(=O)N1CCC[C@@H]1C(=O)N[C@H](CCCNC(=N)N)C(=O)N[C@H](CCCNC(=N)N)C(=O)N[C@H](CCCNC(=N)N)C(=O)N[C@H](CCC(N)=O)C(=O)N[C@H](CCCNC(=N)N)C(=O)N[C@H](CCCNC(=N)N)C(=O)N[C@H](CCCCN)C(=O)N[C@H](CCCCN)C(=O)N[C@H](CCCNC(=N)N)C(=O)NCC(=O)O)[C@H](C)O)[C@H](C)O [SEQ ID NO: 11],EIU clinical scores,[1]; 20 µg/kg intravenous (IV) injection at LPS challenge,2.0 ± 0.1 A.U.
same,EIU clinical scores,[1]; intravitreous (IVT) administration at LPS challenge (SEQ ID NO: 11: 0.2 µg/injection),2.2 ± 0.2 A.U.
same,Phosphorylation of c-Jun on Ser63 and Ser73 residues,"[2]; RPE/ choroid extracts, 24 hours after intravenous or intravitreous injection",reduced
same,relative band intensity for phospho c-Jun in comparison to tubulin (densitometry),"[2]; RPE/ choroid, 24 hours after IV (20 µg/kg)",0.28 ± 0.01
same,relative band intensity for phospho c-Jun in comparison to tubulin (densitometry),"[2]; RPE/ choroid, 24 hours after IVT (0.2 µg/injection)",0.35 ± 0.08
same,decrease in c-Jun phosphorylation,"[2]; RPE/ choroid, after IV or IVT administration, versus vehicle",approximately 3 fold
